Calls of active or inactive are those of the source. No cut-off for these calls is given here.
Experiments:
[1] = Antiproliferative activity in mouse BAF3 cells after 72 hrs by CCK8 assay; type: cell-based
[2] = Selectivity ratio of GI50 for mouse BAF3 cells to GI50 for BCR/ABL T315I mutant (unknown origin) transfected in mouse BAF3 cells
[3] = biological target: Mast/stem cell growth factor receptor Kit (Homo sapiens) (UniProt P10721); assay: Inhibition of wild type C-terminal FLAG-tagged human TEL fused cKIT (unknown origin) transfected in mouse BAF3 cells assessed as growth inhibition after 72 hrs by CCK8 assay; type: cell-based
Mast/stem cell growth factor receptor Kit (Homo sapiens), sequence (P10721 whole entry, the tested form may be a part): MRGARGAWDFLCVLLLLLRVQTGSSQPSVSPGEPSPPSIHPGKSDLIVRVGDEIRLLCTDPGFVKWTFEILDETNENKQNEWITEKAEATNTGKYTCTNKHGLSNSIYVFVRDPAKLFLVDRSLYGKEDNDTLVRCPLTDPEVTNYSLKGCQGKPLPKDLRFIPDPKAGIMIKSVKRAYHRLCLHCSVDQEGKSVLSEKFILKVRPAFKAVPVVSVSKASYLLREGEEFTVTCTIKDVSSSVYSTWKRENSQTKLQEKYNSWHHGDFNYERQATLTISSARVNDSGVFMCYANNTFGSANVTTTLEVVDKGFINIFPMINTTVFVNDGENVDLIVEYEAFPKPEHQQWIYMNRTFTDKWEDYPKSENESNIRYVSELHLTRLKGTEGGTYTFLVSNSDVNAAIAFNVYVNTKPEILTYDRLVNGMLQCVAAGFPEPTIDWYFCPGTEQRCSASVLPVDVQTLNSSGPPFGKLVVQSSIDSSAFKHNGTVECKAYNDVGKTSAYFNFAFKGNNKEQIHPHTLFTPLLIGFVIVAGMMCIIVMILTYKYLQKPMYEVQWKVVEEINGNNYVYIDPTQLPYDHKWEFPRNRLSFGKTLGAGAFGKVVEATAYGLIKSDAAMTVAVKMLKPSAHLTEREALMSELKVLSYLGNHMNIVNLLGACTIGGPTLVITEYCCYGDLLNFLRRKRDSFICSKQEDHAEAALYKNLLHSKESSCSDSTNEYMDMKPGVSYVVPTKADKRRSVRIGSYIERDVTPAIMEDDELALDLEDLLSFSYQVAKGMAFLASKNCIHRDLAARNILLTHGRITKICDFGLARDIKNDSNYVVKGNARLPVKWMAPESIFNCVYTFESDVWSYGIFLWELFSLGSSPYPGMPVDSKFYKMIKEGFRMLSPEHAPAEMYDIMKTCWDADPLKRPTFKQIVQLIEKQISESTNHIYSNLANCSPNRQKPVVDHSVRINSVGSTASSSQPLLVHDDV

[4] = biological target: Fibroblast growth factor receptor 1 (Homo sapiens) (UniProt P11362); assay: Inhibition of wild type C-terminal FLAG-tagged human TEL fused FGFR1 (unknown origin) transfected in mouse BAF3 cells assessed as growth inhibition after 72 hrs by CCK8 assay; type: cell-based
Fibroblast growth factor receptor 1 (Homo sapiens), sequence (P11362 22-822 limits assumed): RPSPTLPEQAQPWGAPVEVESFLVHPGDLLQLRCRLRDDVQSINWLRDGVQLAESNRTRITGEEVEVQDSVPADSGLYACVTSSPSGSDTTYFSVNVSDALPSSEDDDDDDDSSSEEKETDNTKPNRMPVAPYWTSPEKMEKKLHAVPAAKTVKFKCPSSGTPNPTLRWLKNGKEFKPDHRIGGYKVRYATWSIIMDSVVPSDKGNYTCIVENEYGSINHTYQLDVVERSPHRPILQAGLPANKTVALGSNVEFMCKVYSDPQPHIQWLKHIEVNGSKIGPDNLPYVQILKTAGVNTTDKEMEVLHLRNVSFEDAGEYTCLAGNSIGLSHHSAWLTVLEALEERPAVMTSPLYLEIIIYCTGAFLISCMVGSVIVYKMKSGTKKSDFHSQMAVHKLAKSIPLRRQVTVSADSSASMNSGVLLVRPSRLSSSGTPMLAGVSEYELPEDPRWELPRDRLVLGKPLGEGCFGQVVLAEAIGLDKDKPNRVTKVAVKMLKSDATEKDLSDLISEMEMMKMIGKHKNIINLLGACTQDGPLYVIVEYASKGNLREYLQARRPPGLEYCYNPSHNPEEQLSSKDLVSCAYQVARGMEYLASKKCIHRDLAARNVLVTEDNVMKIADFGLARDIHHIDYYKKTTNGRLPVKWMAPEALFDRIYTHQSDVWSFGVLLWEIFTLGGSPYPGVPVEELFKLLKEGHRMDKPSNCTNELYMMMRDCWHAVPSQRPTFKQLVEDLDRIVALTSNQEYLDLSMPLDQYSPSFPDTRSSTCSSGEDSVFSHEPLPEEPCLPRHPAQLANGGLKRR

[5] = biological target: Ephrin type-A receptor 1 (Homo sapiens) (UniProt P21709); assay: Inhibition of wild type C-terminal FLAG-tagged human TEL fused EPHA1 (unknown origin) transfected in mouse BAF3 cells assessed as growth inhibition after 72 hrs by CCK8 assay; type: cell-based
Ephrin type-A receptor 1 (Homo sapiens), sequence (P21709 whole entry, the tested form may be a part): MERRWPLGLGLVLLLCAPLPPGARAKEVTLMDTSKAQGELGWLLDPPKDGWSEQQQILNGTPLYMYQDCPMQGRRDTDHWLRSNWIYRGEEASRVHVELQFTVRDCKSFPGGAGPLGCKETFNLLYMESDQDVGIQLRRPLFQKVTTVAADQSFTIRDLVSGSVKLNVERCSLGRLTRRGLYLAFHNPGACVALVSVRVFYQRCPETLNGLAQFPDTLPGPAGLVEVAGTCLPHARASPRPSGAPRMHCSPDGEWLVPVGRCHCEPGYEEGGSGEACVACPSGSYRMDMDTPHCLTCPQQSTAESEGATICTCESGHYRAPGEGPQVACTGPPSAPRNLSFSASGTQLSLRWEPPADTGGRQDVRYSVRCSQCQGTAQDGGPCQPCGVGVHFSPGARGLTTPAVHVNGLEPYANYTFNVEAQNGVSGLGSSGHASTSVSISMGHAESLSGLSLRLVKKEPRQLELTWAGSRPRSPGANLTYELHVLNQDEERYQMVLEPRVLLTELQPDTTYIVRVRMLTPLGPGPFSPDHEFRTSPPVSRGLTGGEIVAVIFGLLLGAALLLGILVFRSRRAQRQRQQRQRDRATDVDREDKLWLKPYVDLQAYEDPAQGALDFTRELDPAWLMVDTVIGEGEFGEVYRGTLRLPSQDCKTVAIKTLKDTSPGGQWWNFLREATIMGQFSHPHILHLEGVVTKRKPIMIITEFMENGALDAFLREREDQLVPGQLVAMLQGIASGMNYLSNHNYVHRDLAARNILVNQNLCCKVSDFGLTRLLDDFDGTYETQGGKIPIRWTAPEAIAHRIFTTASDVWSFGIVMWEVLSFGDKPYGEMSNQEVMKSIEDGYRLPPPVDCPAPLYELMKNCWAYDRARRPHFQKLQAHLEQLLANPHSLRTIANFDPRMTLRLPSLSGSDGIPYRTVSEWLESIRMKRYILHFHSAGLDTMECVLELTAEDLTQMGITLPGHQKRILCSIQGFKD

KU812 cell line [6] = assay: Antiproliferative activity in human KU812 cells after 72 hrs by CCK8 assay; type: functional; conditions: KU812, 72 h
HL-60 = assay: Antiproliferative activity in human HL60 cells after 72 hrs by CCK8 assay; type: functional; conditions: HL-60, 72 h
[7] = biological target: T1, Bcr/Abl fusion protein (Homo sapiens) (UniProt P00519+P11274); assay: (§1) Inhibition of BCR/ABL in human KU812 cells assessed as inhibition of BCR/ABL autophosphorylation at Y245 site after 1 hr by immunoblotting analysis; type: cell-based
Bcr/Abl fusion protein [8] = biological target: Bcr/Abl fusion protein (Homo sapiens, UniProt P00519); assay: as §1; type: cell-based
[9] = biological target: T1, Bcr/Abl fusion protein (Homo sapiens); assay: Inhibition of BCR/ABL in human MEG01 cells assessed as inhibition of STAT5 phosphorylation up to 0.3 uM after 1 hr by immunoblotting analysis; type: cell-based
[10] = biological target: T1, Bcr/Abl fusion protein (Homo sapiens); assay: Inhibition of BCR/ABL in human MEG01 cells assessed as inhibition of ErK phosphorylation up to 0.3 uM after 1 hr by immunoblotting analysis; type: cell-based
[11] = biological target: T1, Bcr/Abl fusion protein (Homo sapiens); assay: Inhibition of BCR/ABL in human KU812 cells assessed as inhibition of STAT5 phosphorylation up to 0.3 uM after 1 hr by immunoblotting analysis; type: cell-based
[12] = biological target: T1, Bcr/Abl fusion protein (Homo sapiens); assay: Inhibition of BCR/ABL in human KU812 cells assessed as inhibition of CrkL phosphorylation up to 0.3 uM after 1 hr by immunoblotting analysis; type: cell-based
[13] = biological target: T1, Bcr/Abl fusion protein (Homo sapiens); assay: Inhibition of BCR/ABL in human KU812 cells assessed as inhibition of ErK phosphorylation up to 0.3 uM after 1 hr by immunoblotting analysis; type: cell-based
Bcr/Abl fusion protein [14] = biological target: Bcr/Abl fusion protein (Homo sapiens, UniProt P00519, T315I); assay: Inhibition of BCR/ABL T315I mutant (unknown origin) expressed in mouse BAF3 cells assessed as inhibition of BCR/ABL T315I mutant autophosphorylation at Y245 site after 1 hr by immunoblotting analysis; type: cell-based
MEG-01 [15] = assay: Induction of apoptosis in human MEG01 cells assessed as cleaved PARP level up to 0.3 uM after 24 hrs by immunoblotting analysis; type: functional, cell-based
BaF3 [16] = assay: Induction of apoptosis in mouse BAF3 cells expressing BCR/ABL T315I mutant assessed as cleaved PARP level up to 0.3 uM after 24 hrs by immunoblotting analysis; type: functional, cell-based
K562 = assay: Induction of apoptosis in human K562 cells assessed as cleaved caspase-3 level up to 0.3 uM after 24 hrs by immunoblotting analysis; type: functional, cell-based
MEG-01 [17] = assay: Induction of apoptosis in human MEG01 cells assessed as cleaved caspase-3 level up to 0.3 uM after 24 hrs by immunoblotting analysis; type: functional, cell-based
KU812 cell line [18] = assay: Induction of apoptosis in human KU812 cells assessed as cleaved caspase-3 level up to 0.3 uM after 24 hrs by immunoblotting analysis; type: functional, cell-based
BaF3 [19] = assay: Cell cycle arrest in mouse BAF3 cells expressing BCR/ABL T315I mutant assessed as accumulation at G0/G1 phase up to 0.3 uM after 24 hrs by propidium iodide/RNase staining based flow cytometric analysis; type: functional
[20] = Half life in mouse at 1 mg/kg, iv by LC-MS/MS analysis; type: ADME, organism-based; conditions: in vivo
[21] = Half life in mouse at 10 mg/kg, po by LC-MS/MS analysis; type: ADME, organism-based; conditions: in vivo
[22] = Tmax in mouse at 10 mg/kg, po by LC-MS/MS analysis; type: ADME, organism-based; conditions: in vivo
[23] = AUC (0 to infinity) in mouse at 10 mg/kg, po by LC-MS/MS analysis; type: ADME, organism-based; design: dose 10 mg/kg, route oral, time infinity; conditions: in vivo
[24] = Apparent clearance during terminal phase in Sprague-Dawley rat at 10 mg/kg, po by LC-MS/MS analysis; type: ADME, organism-based; conditions: in vivo, read-out: CLz/F (converted)
[25] = MRT (0 to t) in Sprague-Dawley rat at 1 mg/kg, iv by LC-MS/MS analysis; type: ADME, organism-based; conditions: in vivo
[26] = Oral bioavailability in Sprague-Dawley rat at 10 mg/kg by LC-MS/MS analysis; type: ADME, organism-based; conditions: in vivo
BaF3 [27] = assay: Antitumor activity against mouse BAF3 cells expressing BCR/ABL T315I mutant allografted in po dosed nu/nu mouse assessed as tumor growth inhibition administered daily via gavage for 13 days; type: functional, organism-based
BaF3 [28] = assay: Antitumor activity against mouse BAF3 cells expressing BCR/ABL T315I mutant allografted in nu/nu mouse assessed as tumor growth inhibition at 25 to 50 mg/kg, po administered via gavage for 14 days by Ki-67 staining based assay; type: functional, organism-based
BaF3 [29] = assay: Antitumor activity against mouse BAF3 cells expressing BCR/ABL T315I mutant allografted in nu/nu mouse assessed as tumor growth inhibition at 25 to 50 mg/kg, po administered via gavage for 14 days by TUNEL staining based assay; type: functional, organism-based
[30] = biological target: Tyrosine-protein kinase ABL1 (Homo sapiens, UniProt P00519); assay: Inhibition of inactive wild type His-tagged ABL (229 to 500 residues) (unknown origin) expressed in baculovirus infected sf9 cells assessed as reduction in autophosphorylation preincubated for 60 mins followed by ATP addition measured after 8 hrs by ADP-Glo assay
[31] = biological target: Tyrosine-protein kinase ABL1 (Homo sapiens, UniProt P00519, T315I); assay: Inhibition of active wild type His-tagged ABL T315I mutant (229 to 500 residues) (unknown origin) expressed in baculovirus infected sf9 cells using ABLtide as substrate after 1 hr by ADP-Glo assay
[32] = biological target: T1, Bcr/Abl fusion protein (Homo sapiens); conditions: BaF3
Description: Inhibition of wild type BCR/ABL (unknown origin) transfected in mouse BAF3 cells assessed as growth inhibition after 72 hrs by CCK8 assay

[33] = test system: Bcr/Abl fusion protein (Homo sapiens), P00519+P11274 [T315I]; conditions: BaF3
[34] = test system: Tyrosine-protein kinase ABL1 (Homo sapiens), P00519 [T315I]; conditions: BaF3
[35] = test system: Bcr/Abl fusion protein (Homo sapiens), P00519+P11274 [F317I]; conditions: BaF3

## CN1CCN(Cc2ccc(NC(=O)CCSc3ccc4c(/C=C/c5ccccn5)n[nH]c4c3)cc2C(F)(F)F)CC1
[1]
  GI50 at 72 h: 2480 nM
[2]
  RatioGI50: 400
[3]
  GI50: 33 nM
[4]
  GI50: 42 nM
[5]
  GI50: 920 nM
KU812 cell line [6]
  GI50: 3 nM
HL-60
  GI50: 870 nM
[7]
  inhibition: Dose-dependent effect
Bcr/Abl fusion protein [8]
  EC50: < 30 nM
[9]
  inhibition: Active
[10]
  inhibition: Active
[11]
  inhibition: Active
[12]
  inhibition: Active
[13]
  inhibition: Active
Bcr/Abl fusion protein [14]
  EC50: < 10 nM
MEG-01 [15]
  Activity: Active
BaF3 [16]
  Activity: Active
K562
  Activity: Active
MEG-01 [17]
  Activity: Active
KU812 cell line [18]
  Activity: Active
BaF3 [19]
  Activity: Active
[20]
  half-life: 5 h
[21]
  half-life: 2 h
[22]
  Tmax: 1 h
[23]
  AUC(0-inf): 230 ng·h/mL
[24]
  CL/F: 633 mL/min/kg
[25]
  MRT last: 1.2 h
[26]
  bioavailability: 10.9%
BaF3 [27]
  TGI: Dose-dependent effect
BaF3 [28]
  TGI: Active
BaF3 [29]
  TGI: Active
[30]
  IC50: 2 nM
[31]
  IC50: 0.2 nM
[32]
  GI50: 7 nM
[33]
  GI50: 6 nM
[34]
  GI50: 3 nM
[35]
  GI50: 25 nM

Reference: ChEMBL document CHEMBL4382204 (Eur J Med Chem, 2018)
